Assay results: patent publication US12599613B2, “Composition comprising dutasteride” (Chong Kun Dang Pharmaceutical Corp., priority 2018, dated 2026)

Experiment: Dissolution rate of pharmaceutical composition in vitro (Korean Pharmacopoeia Method I, basket)
Format: physicochemical
Conditions: 56 mg dutasteride, 900 mL 1% w/v sodium dodecyl sulfate, 37° C., 100 rpm
Experimental: A dissolution rate of the inventive compositions in vitro was identified through the following experiment. Example 32 was filled into a disposable syringe in such an amount that corresponds to 56 mg of dutasteride and then injected into a dissolution medium, and Comparative Example 1 was directly put into a rotating basket in such an amount that corresponds to 56 mg of dutasteride. This experiment was performed according to the dissolution test method I in the 10th revision of the Korean Pharmacopocia and the conditions for dissolution are as follows.
<Conditions for Dissolution of Pharmaceutical Composition>
• Dissolution method: Method I of the Korean Pharmacopoeia (Appratus I—Basket) • Dissolution medium: 900 mL of solution containing 1% w/v sodium dodecyl sulfate • Dissolution temperature: 37±0.5° C. • Rotation speed: 100 rpm • Test hour: 1, 3, 6, 12 and 24 hours
With regard to a concentration of dutasteride in a dissolution sample, a dissolution rate for 24 hours was analyzed with HPLC under the condition of Experimental Example 1 and the results thereof were shown in FIG. 2.

Compound: C[C@]12C=CC(=O)N[C@@H]1CC[C@@H]1[C@@H]2CC[C@]2(C)[C@@H](C(=O)Nc3cc(C(F)(F)F)ccc3C(F)(F)F)CC[C@@H]12 [Comparative Example 1, dutasteride]
- state of dutasteride in the dissolution medium (dissolved / precipitated): a part of the drug only was dissolved into the dissolution medium
- dissolution rate with an elapse of time (24 hours): hardly increased with an elapse of time from one hour after
